Test results published in US20230203098A1, “HUMAN TRANSFERRIN RECEPTOR BINDING PEPTIDE” (priority 2020, published 2023).
Read-outs that look alike come from different tables or passages of the source. Blank lines part the entries; values can stand above or below the molecule they belong to. Where a SMILES comes first, the peptide text is derived from it. Bridges are numbered along the chain shown (N, C = ends). [ ]: non-standard residue; d: D form. The star is where a group is joined. PEG12 = NCCOCCOCCOCCOCCOCCOCCOCCOCCOCCOCCOCCOCCC(=O)O; NH(CH2CH2O)8Me = COCCOCCOCCOCCOCCOCCOCCOCCN*; NMePhe(3-Cl) = CN[C@@H](Cc1cccc(Cl)c1)C(=O)O; NMeW = CN[C@@H](Cc1c[nH]c2ccccc12)C(=O)O; NMeY = CN[C@@H](Cc1ccc(O)cc1)C(=O)O; NMeF = CN[C@@H](Cc1ccccc1)C(=O)O; PEG4 = NCCOCCOCCOCCOCCC(=O)O; hLys = NCCCCC[C@H](N)C(=O)O

Biological target: transferrin receptor (hTfR) (Homo sapiens, UniProt P02786)
Sequence (P02786 whole entry): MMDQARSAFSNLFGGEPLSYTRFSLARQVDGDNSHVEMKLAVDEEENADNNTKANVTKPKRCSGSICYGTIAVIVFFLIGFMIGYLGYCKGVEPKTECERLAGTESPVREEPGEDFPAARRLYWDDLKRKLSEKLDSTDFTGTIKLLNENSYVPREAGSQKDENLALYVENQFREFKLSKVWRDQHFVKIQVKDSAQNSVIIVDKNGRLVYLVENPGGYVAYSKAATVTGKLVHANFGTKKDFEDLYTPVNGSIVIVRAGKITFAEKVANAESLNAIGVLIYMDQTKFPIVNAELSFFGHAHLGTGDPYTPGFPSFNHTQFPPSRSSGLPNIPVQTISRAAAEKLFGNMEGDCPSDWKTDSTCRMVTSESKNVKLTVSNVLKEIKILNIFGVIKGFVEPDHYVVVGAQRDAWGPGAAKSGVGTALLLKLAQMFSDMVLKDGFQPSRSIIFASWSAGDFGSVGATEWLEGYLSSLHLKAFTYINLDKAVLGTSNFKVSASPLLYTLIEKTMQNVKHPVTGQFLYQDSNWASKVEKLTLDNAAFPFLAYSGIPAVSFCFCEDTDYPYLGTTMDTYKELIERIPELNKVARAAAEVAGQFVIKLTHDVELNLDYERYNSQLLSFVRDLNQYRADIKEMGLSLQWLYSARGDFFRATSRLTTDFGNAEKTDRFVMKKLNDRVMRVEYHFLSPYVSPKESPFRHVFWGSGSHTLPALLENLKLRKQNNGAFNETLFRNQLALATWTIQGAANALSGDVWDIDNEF
Assay: Intermolecular interaction evaluation test between transferrin receptor (hTfR) and peptide by surface plasmon resonance (SPR)
Type: binding
Outline: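 hTfR captured on Ni-NTA chip then amine-coupled; peptides run single-cycle kinetics at 5–100 nM in 10 mM HEPES pH 8.0, 150 mM NaCl, 0.05% Tween 20, 0.1% BSA, 1.0% DMSO. KD from least-squares curve fitting of sensorgrams.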

[1] = surface plasmon resonance, hTfR, read-out: KD value for hTfR by SPR (class symbol)
[2] = surface plasmon resonance, peptide vs hTfR, read-out: KD value, hTfR binding by SPR (class symbol)
[3] = hTfR binding by SPR, hTfR No. 894 variant peptides, linker-added peptides and payload conjugates (Table 2), read-out: KD value obtained from the SPR measurement

- Kd [1]: 1 to 100 nM
SMILES: CC[C@H](C)[C@@H]1NC(=O)[C@H](Cc2ccc(OC)cc2)NC(=O)[C@H](Cc2ccc(O)cc2)NC(=O)[C@H](CC(N)=O)NC(=O)[C@H](Cc2c[nH]c3ccccc23)N(C)C(=O)[C@H](C(C)C)NC(=O)[C@H](Cc2cccc(Cl)c2)N(C)C(=O)[C@H](C(C)C)NC(=O)[C@H](C)NC(=O)CSC[C@@H](C(N)=O)NC(=O)[C@H](Cc2ccc(O)cc2)N(C)C(=O)[C@H](Cc2cccc(Cl)c2)NC(=O)[C@@H](CCCNC(=N)N)NC(=O)[C@H](CCCNC(=N)N)NC(=O)[C@H]([C@@H](C)CC)NC1=O [compound 393]

- Kd (SPR, hTfR, class symbols A-D, read-out: KD (column without head, continuation of the table series)): 1 to 100 nM
SMILES: CC[C@H](C)[C@@H]1NC(=O)[C@H](Cc2ccc(O)cc2)NC(=O)[C@H](Cc2ccc(O)cc2)NC(=O)[C@H](CC(N)=O)NC(=O)[C@H](Cc2c[nH]c3ccccc23)NC(=O)[C@H](C(C)C)NC(=O)[C@H](Cc2ccccc2)N(C)C(=O)[C@H](C(C)C)NC(=O)[C@H](C)NC(=O)CSC[C@@H](C(=O)NCC(=O)NCCOCCOCCOCCOCCOCCOCCOCCOCCOCCOCCOCCOCCC(=O)N[C@@H](CCCCN=[N+]=[N-])C(N)=O)NC(=O)[C@H](Cc2ccc(O)cc2)N(C)C(=O)[C@H](Cc2ccc(O)cc2)NC(=O)[C@H](CCCNC(=N)N)NC(=O)[C@H](CCCNC(=N)N)NC(=O)[C@H]([C@@H](C)CC)NC1=O [compound 501]

- Kd (SPR, peptides, linker-added peptides and FITC conjugates, Patent ID 203-230, read-out: KD): 1 to 100 nM
SMILES: CC[C@H](C)[C@@H]1NC(=O)[C@H](Cc2ccc(OC)cc2)NC(=O)[C@H](Cc2ccc(O)cc2)NC(=O)[C@H](CC(N)=O)NC(=O)[C@H](Cc2c[nH]c3ccccc23)N(C)C(=O)[C@H](C(C)C)NC(=O)[C@H](Cc2cccc(Cl)c2)N(C)C(=O)[C@H](CCC(=O)O)NC(=O)[C@H](C)NC(=O)CSC[C@@H](C(N)=O)NC(=O)[C@H](CCC(=O)O)NC(=O)[C@H](CCCNC(=N)N)NC(=O)[C@@H]2CCCN2C(=O)[C@H](C(C)C)NC1=O [compound 206] ({CH2CO}-AE[NMePhe(3-Cl)]V[NMeW]NYY(Me)IVPREC-NH2; thioether N-14)

- Kd (SPR, linker and payload (FITC, VivoTag) conjugates, read-out: KD): 1 to 100 nM
SMILES: CC[C@H](C)[C@@H]1NC(=O)[C@H](Cc2ccc(O)cc2)NC(=O)[C@H](Cc2ccc(O)cc2)NC(=O)[C@H](CC(N)=O)NC(=O)[C@H](Cc2c[nH]c3ccccc23)NC(=O)[C@H](C(C)C)NC(=O)[C@H](Cc2ccccc2)NC(=O)[C@H](C(C)C)NC(=O)[C@H](C)N(C)C(=O)CSC[C@@H](C(=O)NCCOCCOCCOCCOCCC(=O)N[C@@H](CNC(=O)c2ccc(-c3c4ccc(=O)cc-4oc4cc(O)ccc34)c(C(=O)O)c2)C(N)=O)NC(=O)[C@H](Cc2ccc(O)cc2)N(C)C(=O)[C@H](Cc2ccc(O)cc2)NC(=O)[C@H](CCCNC(=N)N)NC(=O)[C@H](CCCNC(=N)N)NC(=O)[C@H]([C@@H](C)CC)NC1=O [compound 161]

- Kd (SPR, hTfR No. 894 variants with PEG12c linker (Table 2), read-out: KD): 1 to 100 nM
SMILES: CC[C@H](C)[C@@H]1NC(=O)[C@H](Cc2ccc(O)cc2)NC(=O)[C@H](Cc2ccccc2)NC(=O)[C@H](CC(N)=O)NC(=O)[C@H](Cc2c[nH]c3ccccc23)NC(=O)[C@H](C(C)C)NC(=O)[C@H](Cc2ccccc2)N(C)C(=O)[C@H](C(C)C)NC(=O)[C@H](C)NC(=O)CSC[C@@H](C(=O)NCCOCCOCCOCCOCCOCCOCCOCCOCCOCCOCCOCCOCCC(N)=O)NC(=O)[C@H](Cc2ccc(O)cc2)N(C)C(=O)[C@H](Cc2ccc(O)cc2)NC(=O)[C@H](CCCNC(=N)N)NC(=O)[C@H](CCCNC(=N)N)NC(=O)[C@H]([C@@H](C)CC)NC1=O [compound 135] ({CH2CO}-AV[NMeF]VWNFYIIRRY[NMeY]C[PEG12]-NH2; thioether N-15)

- Kd [1]: 1 to 100 nM
SMILES: CC[C@H](C)[C@@H]1NC(=O)[C@H](Cc2ccc(OC)cc2)NC(=O)[C@H](Cc2ccc(O)cc2)NC(=O)[C@H](CC(N)=O)NC(=O)[C@H](Cc2c[nH]c3ccccc23)N(C)C(=O)[C@H](C(C)C)NC(=O)[C@H](Cc2cccc(Cl)c2)N(C)C(=O)[C@H](C(C)C)NC(=O)[C@H](C)NC(=O)CSC[C@@H](C(=O)N[C@H](CCC(=O)O)C(=O)NCC(=O)NCC(=O)NCC(=O)N[C@@H](CO)C(=O)N[C@@H](CO)C(=O)N[C@@H](CS)C(N)=O)NC(=O)[C@H](Cc2ccc(O)cc2)N(C)C(=O)[C@H](Cc2ccccc2)NC(=O)[C@@H](CCCNC(=N)N)NC(=O)[C@H](CCCNC(=N)N)NC(=O)[C@H]([C@@H](C)CC)NC1=O [compound 402] ({CH2CO}-AV[NMePhe(3-Cl)]V[NMeW]NYY(Me)IIR[dR]F[NMeY]C[dE]GGGSSC-NH2; thioether N-15)

- Kd [1]: 1 to 100 nM
SMILES: CC[C@H](C)[C@@H]1NC(=O)[C@H](Cc2ccc(OC)cc2)NC(=O)[C@H](Cc2ccc(O)cc2)NC(=O)[C@H](CC(N)=O)NC(=O)[C@H](Cc2c[nH]c3ccccc23)N(C)C(=O)[C@H](C(C)C)NC(=O)[C@H](Cc2cccc(Cl)c2)N(C)C(=O)[C@H](C(C)C)NC(=O)[C@H](C)NC(=O)CSC[C@@H](C(=O)NCCOCCOCCOCCOCCC(N)=O)NC(=O)[C@H](Cc2ccc(O)cc2)N(C)C(=O)[C@H](Cc2ccccc2)NC(=O)[C@@H](CCCNC(=N)N)NC(=O)[C@H](CCCNC(=N)N)NC(=O)[C@H]([C@@H](C)CC)NC1=O [compound 400]

- Kd [2]: 1 to 100 nM
SMILES: CC[C@H](C)[C@@H]1NC(=O)[C@H](Cc2ccc(OC)cc2)NC(=O)[C@H](Cc2ccc(O)cc2)NC(=O)[C@H](CC(N)=O)NC(=O)[C@H](Cc2c[nH]c3ccccc23)N(C)C(=O)[C@H](C(C)C)NC(=O)[C@H](Cc2cccc(Cl)c2)N(C)C(=O)[C@H](C(C)C)NC(=O)[C@H](C)NC(=O)CSC[C@@H](C(N)=O)NC(=O)[C@H](Cc2ccc(O)cc2)N(C)C(=O)[C@H](Cc2ccccc2)NC(=O)[C@@H](CCCNC(=N)N)NC(=O)[C@H](CCCNC(=N)N)NC(=O)[C@H](CCC(=O)NCCOCCOCCOCCOCCOCCOCCOCCOC)NC1=O [compound 345] ({CH2CO}-AV[NMePhe(3-Cl)]V[NMeW]NYY(Me)IE(NH(CH2CH2O)8Me)R[dR]F[NMeY]C-NH2; thioether N-15)

- Kd [3]: 1 to 100 nM
SMILES: CC[C@H](C)[C@@H]1NC(=O)[C@H](Cc2ccc(O)cc2)NC(=O)[C@H](Cc2ccc(O)cc2)NC(=O)[C@H](CC(N)=O)NC(=O)[C@H](Cc2c[nH]c3ccccc23)NC(=O)[C@H](C(C)C)NC(=O)[C@H](Cc2ccccc2)N(C)C(=O)[C@H](C(C)C)NC(=O)[C@H](C)NC(=O)CSC[C@@H](C(=O)NCC(=O)NCC(=O)N[C@@H](CCCCNC(=O)C2CCC(CN3C(=O)C=CC3=O)CC2)C(N)=O)NC(=O)[C@H](Cc2ccc(O)cc2)N(C)C(=O)[C@H](Cc2ccc(O)cc2)NC(=O)[C@H](CCCNC(=N)N)NC(=O)[C@H](CCCNC(=N)N)NC(=O)[C@H]([C@@H](C)CC)NC1=O (some centres unmarked) [compound 195]

- Kd [2]: 1 to 100 nM
SMILES: CC[C@H](C)[C@@H]1NC(=O)[C@H](Cc2ccc(O)cc2)NC(=O)[C@H](Cc2ccc(O)cc2)NC(=O)[C@H](CC(N)=O)NC(=O)[C@H](Cc2c[nH]c3ccccc23)NC(=O)[C@H](C(C)C)NC(=O)[C@H](Cc2ccccc2)N(C)C(=O)[C@H](C(C)C)NC(=O)[C@H](C)NC(=O)CSC[C@@H](C(=O)NCC(=O)N[C@@H](CCCCN=[N+]=[N-])C(N)=O)NC(=O)[C@H](Cc2ccc(O)cc2)N(C)C(=O)[C@H](Cc2ccc(O)cc2)NC(=O)[C@H](CCCNC(=N)N)NC(=O)[C@H](CCCNC(=N)N)NC(=O)[C@H]([C@@H](C)CC)NC1=O [compound 297]

SMILES: CC[C@H](C)[C@@H]1NC(=O)[C@H](Cc2ccc(OC)cc2)NC(=O)[C@H](Cc2ccc(O)cc2)NC(=O)[C@H](CC(N)=O)NC(=O)[C@H](Cc2c[nH]c3ccccc23)N(C)C(=O)[C@H](C(C)C)NC(=O)[C@H](Cc2cccc(Cl)c2)N(C)C(=O)[C@H](C(C)C)NC(=O)[C@H](C)NC(=O)CSC[C@@H](C(=O)NCC(=O)NCC(=O)NCC(=O)NCC(=O)N[C@@H](CO)C(=O)N[C@@H](CO)C(=O)N[C@@H](CS)C(N)=O)NC(=O)[C@H](Cc2ccc(O)cc2)N(C)C(=O)[C@H](Cc2ccccc2)NC(=O)[C@@H](CCCNC(=N)N)NC(=O)[C@H](CCCNC(=N)N)NC(=O)[C@H]([C@@H](C)CC)NC1=O [compound 401]
- Kd: 1 to 100 nM

- Kd [1]: 100 to 1000 nM
SMILES: CC[C@H](C)[C@@H]1NC(=O)[C@H](Cc2ccc(OC)cc2)NC(=O)[C@H](Cc2ccc(O)cc2)NC(=O)[C@H](CC(N)=O)NC(=O)[C@H](Cc2c[nH]c3ccccc23)N(C)C(=O)[C@H](C(C)C)NC(=O)[C@H](Cc2cccc(Cl)c2)N(C)C(=O)[C@H](C(C)C)NC(=O)[C@H](C)NC(=O)CSC[C@@H](C(=O)N[C@H](CCC(=O)O)C(N)=O)NC(=O)[C@H](Cc2ccc(O)cc2)N(C)C(=O)[C@H](Cc2ccccc2)NC(=O)[C@@H](CCCNC(=N)N)NC(=O)C(C)(C)NC(=O)[C@H]([C@@H](C)CC)NC1=O [compound 355]

- Kd [2]: 1 to 100 nM
SMILES: CC[C@H](C)[C@@H]1NC(=O)[C@H](Cc2ccc(OC)cc2)NC(=O)[C@H](Cc2ccc(O)cc2)NC(=O)[C@H](CC(N)=O)NC(=O)[C@H](Cc2c[nH]c3ccccc23)N(C)C(=O)[C@H](C(C)C)NC(=O)[C@H](Cc2cccc(Cl)c2)N(C)C(=O)[C@H](C(C)C)NC(=O)[C@H](C)NC(=O)CSC[C@@H](C(=O)NCCOCCOCCOCCOCCC(N)=O)NC(=O)[C@H](Cc2ccc(O)cc2)N(C)C(=O)[C@H](Cc2ccccc2)NC(=O)[C@@H](CCCNC(=N)N)NC(=O)[C@H](CCCNC(=N)N)NC(=O)[C@H](CCCCCN)NC1=O [compound 339] ({CH2CO}-AV[NMePhe(3-Cl)]V[NMeW]NYY(Me)I[hLys]R[dR]F[NMeY]C[PEG4]-NH2; thioether N-15)

SMILES: CC[C@H](C)[C@@H]1NC(=O)[C@H](Cc2ccc(O)cc2)NC(=O)[C@H](Cc2ccc(O)cc2)NC(=O)[C@H](CC(N)=O)NC(=O)[C@H](Cc2c[nH]c3ccccc23)N(C)C(=O)[C@H](C(C)C)NC(=O)[C@H](Cc2ccccc2)N(C)C(=O)[C@H](C(C)C)NC(=O)[C@H](C)NC(=O)CSC[C@@H](C(=O)NCCOCCOCCOCCOCCOCCOCCOCCOCCC(=O)N[C@@H](CCCCNC(=O)C2CCC(CN3C(=O)C=CC3=O)CC2)C(N)=O)NC(=O)[C@H](Cc2ccc(O)cc2)N(C)C(=O)[C@H](Cc2ccc(O)cc2)NC(=O)[C@H](CCCNC(=N)N)NC(=O)[C@H](CCCNC(=N)N)NC(=O)[C@H]([C@@H](C)CC)NC1=O (some centres unmarked) [compound 185]
- Kd [3]: 1 to 100 nM
